Bridge positions count the residues as written; N and C are the ends. Square brackets hold non-standard residues; d marks the D form. Peptide text beside a SMILES is read from it. I, II: the chains in the order shown. αMeF = C[C@](N)(Cc1ccccc1)C(=O)O
Experiments:
[1] = system: C57B16 mice; test: Colorectal propulsion (bead expulsion) in loperamide-constipated mice; type: in vivo, mouse; details: 20 μg/kg i.p., 10 minutes after loperamide 1 mg/kg s.c.
Description: Male C57B16 mice (20-30 g; ARC), between the ages of 3 to 5 months, were used for all studies. All experiments were conducted in accordance with the National Health and Medical Research Council (NHMRC) guidelines for the care and use of animals and with approval from the Florey Institute of Neuroscience and Mental Health Animal Ethics Committee (#18-128 FINMH and #18-081 FINMH). All animals were group housed (2-6 per cage) and maintained in a humidity-controlled room at 22° C. under a 12 hours light/dark cycle with access to food and water ad libitum.
Loperamide (Sigma-Aldrich) was prepared in 1% Tween-80 (SigmaAldrich) in distilled water and was administered subcutaneously (s.c.) at the back of the neck to induce constipation. Mice were injected with either vehicle (1% Tween-80/water) or loperamide (0.3, 1, 3 mg/kg). INSL5-A13 (20 μg/kg) (SEQ ID NOs 9 and 10) and single-chain αF stapled analogue (200 μg/kg) (SEQ ID NO 16) were dissolved in distilled water and injected intraperitoneally (i.p.) 10 minutes after loperamide was administered (1 mg/kg, s.c.). At 20 minutes post peptide injection, mice were lightly anesthetized with 2% (v/v) isoflurane in O2, administered at 1 L/min for a maximum of 15 seconds following induction with 5% isoflurane in O2 at 1 L/min. […] The time taken from bead insertion to bead expulsion was recorded. […] The time was scored as 30 minutes. […]

[2] = target: T1, RXFP4 (Homo sapiens, UniProt Q8TDU9); test: Eu-R3/I5 competition binding assay in CHO-K1-RXFP4 cells; parameters: expressed in transfected cells
Description: An Eu-R3/15 competition binding assay in CHO-K1-RXFP4 cells was carried out.
(§1) Competition binding curves for each peptide were performed in triplicate and each experiment was performed independently at least three times. Fluorescent measurements were carried out at excitation of 340 nm and emission of 614 nm on a BMG POLARstar plate reader (BMG Labtech, Melbourne, Australia). Pooled data were presented as mean±S.E.M. of specific binding and are fitted using a one-site binding curve in GraphPad Prism version 8 (GraphPad Inc., San Diego, USA). Statistical analyses were conducted using one-way analysis of variance with uncorrected Fisher's least significant difference (LSD) post-hoc analysis in GraphPad Prism version 9.
(§2) An additional analogue of INSL5 was utilised as a control, INSL5-A13, having an A chain (SEQ ID NO: 9) and a B chain (SEQ ID NO: 10) with a first disulfide bond between Cys 1 of the A chain and Cys 7 of the B chain, and a second disulfide bond between Cys 14 of the A chain and Cys 19 of the B chain:
(§3) Competition binding and cAMP activity assay were conducted by a procedure analogous to that described above for Example 3. The results are shown in FIG. 24 (RXFP3) and FIG. 25 (RXFP4).
Target sequence in this assay (Q8TDU9 whole entry): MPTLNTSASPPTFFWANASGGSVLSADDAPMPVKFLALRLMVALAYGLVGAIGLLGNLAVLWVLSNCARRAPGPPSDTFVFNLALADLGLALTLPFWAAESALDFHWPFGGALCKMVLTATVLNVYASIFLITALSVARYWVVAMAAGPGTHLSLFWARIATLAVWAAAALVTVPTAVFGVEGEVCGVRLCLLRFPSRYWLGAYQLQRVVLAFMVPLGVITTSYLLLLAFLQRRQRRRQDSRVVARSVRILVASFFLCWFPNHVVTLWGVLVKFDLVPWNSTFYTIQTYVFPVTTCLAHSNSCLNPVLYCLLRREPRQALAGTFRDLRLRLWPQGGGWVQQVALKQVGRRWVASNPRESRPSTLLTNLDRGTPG

[3] = target: T1, RXFP4; test: Inhibition of forskolin-induced cAMP activity in CHO-K1-RXFP4 cells (pCRE β-galactosidase reporter); type: cell-based; parameters: expressed in transfected cells
Description: For agonist assays, cells were stimulated with forskolin (5 μM for RXFP3, 1 μM for RXFP4)±increasing concentrations of each peptide for 6 hours. Data were expressed as the % forskolin activity, whereby 100% was defined as forskolin alone and 0% as maximum agonist stimulation (1 μM Analogue 2 for RXFP3 and 1 μM Analogue 13 for RXFP4). Data were analysed and plotted using GraphPad Prism 9 and are expressed as the mean±SEM of the pooled data. Statistical analysis was conducted using one-way ANOVA with Uncorrected Fisher's LSD post-hoc analysis using GraphPad Prism 9.
as §2, §3
Target sequence in this assay (Q8TDU9 whole entry): as above

[4] = target: T2, RXFP3 (Homo sapiens, UniProt Q9NSD7); test: Eu-H3B1-22R competition binding assay in CHO-K1-RXFP3 cells; details: 5 nM Eu-H3B1-22R, mean ± SEM (n), Table 2, read-out: Eu-H3B1-22R pKi (converted)
T2 construct: expressed in transfected cells
T2 sequence (Q9NSD7 1-469): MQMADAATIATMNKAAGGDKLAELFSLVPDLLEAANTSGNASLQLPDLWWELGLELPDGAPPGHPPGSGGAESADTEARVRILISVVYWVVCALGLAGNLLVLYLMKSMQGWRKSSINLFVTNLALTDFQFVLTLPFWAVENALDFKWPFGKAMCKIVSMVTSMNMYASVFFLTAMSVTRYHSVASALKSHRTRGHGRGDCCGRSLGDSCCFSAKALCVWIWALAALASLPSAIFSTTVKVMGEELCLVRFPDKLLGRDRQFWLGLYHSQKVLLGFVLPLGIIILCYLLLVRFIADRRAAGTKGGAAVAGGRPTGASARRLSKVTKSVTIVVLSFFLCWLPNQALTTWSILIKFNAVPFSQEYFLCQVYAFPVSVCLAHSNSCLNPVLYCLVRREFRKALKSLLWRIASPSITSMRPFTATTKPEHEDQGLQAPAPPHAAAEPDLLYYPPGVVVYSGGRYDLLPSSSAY
Description: An Eu-H3B1-22R competition binding assay was conducted in CHO-K1-RXFP3 cells.
as §1, §3

[5] = target: T2, RXFP3; test: Inhibition of forskolin-induced cAMP activity in CHO-K1-RXFP3 cells (pCRE β-galactosidase reporter); type: cell-based; details: 5 μM forskolin, 6 hours, Table 2, read-out: cAMP pEC50 (converted)
Description: Since RXFP3 is coupled to Gi/o proteins, peptides were tested for their ability to activate RXFP3 as measured via their ability to inhibit forskolin-induced cAMP activity in CHO-K1-RXFP3 or CHO-K1-RXFP4 cells transfected with a pCRE (cAMP Response Element) β-galactosidase reporter plasmid (as described in Belgi, A et al., Structure and function relationship of murine insulin-like peptide 5 (INSL5): free C-terminus is essential for RXFP4 receptor binding and activation. Biochemistry 2011, 50 (39), 8352-61; and Haugaard-Kedstrom, L. M et al., Synthesis and pharmacological characterization of a europium-labelled single-chain antagonist for binding studies of the relaxin-3 receptor RXFP3. Amino Acids 2015, 47 (6), 1267-71). For agonist assays, cells were stimulated with forskolin (5 μM for RXFP3, 1 μM for RXFP4)±increasing concentrations of each peptide for 6 hours. Data were expressed as the % forskolin activity, whereby 100% was defined as forskolin alone and 0% as maximum agonist stimulation (1 μM Analogue 2 for RXFP3 and 1 μM Analogue 13 for RXFP4). Data were analysed and plotted using GraphPad Prism 9 and are expressed as the mean±SEM of the pooled data. Statistical analysis was conducted using one-way ANOVA with Uncorrected Fisher's LSD post-hoc analysis using GraphPad Prism 9.
as §3

[6] = target: T3, RXFP3 (Homo sapiens, UniProt Q9NSD7); test: NanoBRET β-arrestin2 recruitment assay, RXFP3-NLuc / Venus-β-arrestin2 in HEK293T cells; type: cell-based
T3 construct: expressed in transfected cells; host or cells: HEK293T (transient, Lipofectamine 2000, pcDNA3.1/Zeo(+))
Description: (§4) The inventors assessed if H3B10-27(13/17αF) retained the ability to recruit β-arrestin2 and therefore display full agonist activity at RXFP3 and RXFP4, in comparison to Peptide 5.
The RXFP3 β-arrestin2 recruitment assay was carried out by PCR cloning NLuc onto the C-terminus of human RXFP3 in an identical manner to the RXFP3-rLuc8 construct to create pcDNA3.1-RXFP3-NLuc. The construct was sequenced on both strands to confirm that the NLuc was in frame with RXFP3 and there were no additional PCR mutations. pcDNA3.1-RXFP3-NL was tested in parallel with pcDNA3.1-RXFP3 in cAMP activity assays to determine if the C-terminal nanoluciferase fusion affected agonist activity.
For NanoBRET β-arrestin2 recruitment assays, HEK293T cells were plated onto a six-well plate, and were transfected the following day with β-arrestin2-Venus and either RXFP3-Nluc or RXFP4-Nluc, in the pcDNA3.1/Zeo(+) vector, using Lipofectamine 2000. The next day, cells were washed with DPBS and resuspended in complete media containing 25 mM HEPES but no phenol red, and were seeded into a 96-well CulturPlate (PerkinElmer). […] Emissions were detected simultaneously using a PHERAstar FSX plate reader (BMG Labtech) with 450/80 nm and 535/30 nm filters. Ligand-induced BRET ratio was calculated by subtracting the ratio of 535/30 nm emissions to 450/80 nm emissions for vehicle from the same ratio for ligand-treated wells. […]
T3 sequence (P32121 whole entry partner, one chain of several): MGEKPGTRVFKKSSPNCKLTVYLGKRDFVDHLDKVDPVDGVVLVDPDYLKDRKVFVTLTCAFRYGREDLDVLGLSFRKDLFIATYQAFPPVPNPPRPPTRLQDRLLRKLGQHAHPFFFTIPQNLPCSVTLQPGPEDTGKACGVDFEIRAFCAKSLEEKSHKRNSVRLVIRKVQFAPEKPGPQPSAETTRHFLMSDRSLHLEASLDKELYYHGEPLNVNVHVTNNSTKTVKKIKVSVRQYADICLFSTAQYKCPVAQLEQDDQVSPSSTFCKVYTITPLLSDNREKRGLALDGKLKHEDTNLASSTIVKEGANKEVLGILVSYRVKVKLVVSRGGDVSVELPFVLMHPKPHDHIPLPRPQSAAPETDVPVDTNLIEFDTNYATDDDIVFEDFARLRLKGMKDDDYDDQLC

[7] = In vitro serum stability in human serum at 37° C.; details: human serum
Description: Human serum (400 μl) was mixed with 200 μg peptide dissolved in 100 μl of water at 37° C. Eighty (80) μl of sample was removed at various time points (0 min, 30 min, 60 min, 120 min, 240 min, and 480 min), and 160 μl of acetonitrile added to precipitate plasma proteins. The solution was then centrifuged at 12000 rpm for 15 min at 4° C. 200 μl of supernatant was taken and mixed with 240 μl of milli-Q water and each sample analysed by RP-HPLC (2×80 μL injection) by measuring the area under the peak at appropriate retention times compared to the peak area of the peptide at time zero (100%). Data analysis (n=3, duplicate) was performed using a non-linear fit one-phase decay model in GraphPad Prism 9.

[8] = target: T1, RXFP4; test: NanoBRET β-arrestin2 recruitment assay, RXFP4-NLuc / Venus-β-arrestin2 in HEK293T cells; type: cell-based; parameters: expressed in transfected cells; host or cells: HEK293T (transient, Lipofectamine 2000, pcDNA3.1/Zeo(+)); details: AUC of the entire time course; text of b227; read-out: pEC50, RXFP4 β-arrestin2 recruitment (converted)
Description: as §4
Target sequence in this assay (Q8TDU9 whole entry): as the sequence (Q8TDU9 whole entry) above
Target sequence in this assay (P32121 whole entry partner): as the sequence (P32121 whole entry partner, one chain of several) above
For NanoBRET β-arrestin2 recruitment assays, HEK293T cells were plated onto a six-well plate, and were transfected the following day with β-arrestin2-Venus and either RXFP3-Nluc or RXFP4-Nluc, in the pcDNA3.1/Zeo(+) vector, using Lipofectamine 2000. The next day, cells were washed with DPBS and resuspended in complete media containing 25 mM HEPES but no phenol red, and were seeded into a 96-well CulturPlate (PerkinElmer). The next day, prior to the assay, cells were pre-incubated in phenol red free media with NLuc substrate, 5 μM coelenterazine 400a for RXFP3-nLuc and 5 μM coelenterazine h for RXFP4-NLuc (both from Nanolight, Pinetop, AZ, USA) to establish a baseline, before addition of ligand or vehicle. Emissions were detected simultaneously using a PHERAstar FSX plate reader (BMG Labtech) with 450/80 nm and 535/30 nm filters. Ligand-induced BRET ratio was calculated by subtracting the ratio of 535/30 nm emissions to 450/80 nm emissions for vehicle from the same ratio for ligand-treated wells. […]

[9] = system: mouse model of inflammatory persistent pain; test: CFA model of inflammatory persistent pain; type: in vivo; details: co-injection with RXFP3 agonist
Description: Pilot studies were conducted in a mouse model of inflammatory persistent pain obtained by intraplantar injection of Complete Freund's Adjuvant (CFA). […] The effect is maximal at 30 minutes after the injection and vanished after 1 hour. The same result has been obtained in a rat CFA model with a similar time course of the antinociceptive effect.

In the case of CC[C@H](C)[C@@H]1NC(=O)[C@H](Cc2ccc(O)cc2)NC(=O)[C@H]([C@@H](C)CC)NC(=O)[C@H](C(C)C)NC(=O)[C@H]([C@@H](C)O)NC(=O)[C@H](CCCNC(=N)N)NC(=O)[C@H]([C@@H](C)CC)NC(=O)[C@H](Cc2ccc(O)cc2)NC(=O)[C@H](CCC(=O)O)NC(=O)[C@H](CC(C)C)NC(=O)CNC(=O)[C@@H](NC(=O)[C@H](CC(C)C)NC(=O)[C@H](CCCNC(=N)N)NC(=O)[C@@H](NC(=O)[C@H](CO)NC(=O)[C@H](CCC(=O)O)NC(=O)[C@@H](N)CCCCN)C(C)C)CSSC[C@H](N)C(=O)N[C@@H]([C@@H](C)O)C(=O)N[C@@H](CC(=O)O)C(=O)NCC(=O)N[C@@H](C)C(=O)N[C@@H](CO)C(=O)N[C@@H](CCSC)C(=O)N[C@@H](CCCCN)C(=O)N[C@@H](CC(=O)O)C(=O)N[C@@H](CC(C)C)C(=O)N[C@@H](CO)C(=O)N[C@@H](C)C(=O)N[C@@H](CC(C)C)C(=O)N[C@H](C(=O)O)CSSC[C@@H](C(=O)N[C@@H](C)C(=O)N[C@@H](CO)C(=O)N[C@@H](CO)C(=O)N[C@@H](CCCNC(=N)N)C(=O)N[C@@H](Cc2c[nH]c3ccccc23)C(=O)O)NC1=O [INSL5-A13] (I: H-KESVRLCGLEYIRTVIYICASSRW-OH / II: H-CTDGASMKDLSALC-OH; disulfide I:7-II:1, I:19-II:14; N-terminus and C-terminus assumed), the “colorectal propulsion (bead expulsion)” value [1] is reported as “effective in accelerating colorectal propulsion”, the “Eu-R3/I5 pKi” value ([2]; RXFP4, Table 5) is reported as 7.46 ± 0.06 (7) and the “cAMP pEC50” value ([3]; RXFP4, Table 5) is reported as 8.10 ± 0.10 (4).

Work on CC[C@H](C)[C@H](NC(=O)[C@H](Cc1ccccc1)NC(=O)[C@](C)(Cc1ccccc1)NC(=O)[C@H](CCCNC(=N)N)NC(=O)CNC(=O)[C@@H](N)CO)C(=O)N[C@@H](CCCNC(=N)N)C(=O)N[C@@](C)(Cc1ccccc1)C(=O)N[C@H](C(=O)N[C@H](C(=O)N[C@@H](Cc1ccccc1)C(=O)N[C@H](C(=O)N[C@@H](CO)C(=O)NCC(=O)NCC(=O)N[C@@H](CO)C(=O)N[C@@H](CCCNC(=N)N)C(=O)N[C@@H](Cc1c[nH]c2ccccc12)C(=O)O)[C@@H](C)O)[C@@H](C)CC)C(C)C [H3B10-27(13/17αF)] (H-SGR[αMeF]FIR[αMeF]VIFTSGGSRW-OH) yielded a Ki [4] of 148 nM, an EC50 [5] of 6.92 nM and an EC50 ([6]; AUC of NanoBRET time course, Table 4, read-out: RXFP3 pEC50 (β-arrestin2 recruitment) (converted)) of 64.6 nM. It also gave an EC50 ([6]; AUC of the entire time course, text of b227, read-out: pEC50, RXFP3 β-arrestin2 recruitment (converted)) of 89.1 nM, a Ki ([2]; RXFP4, CHO-K1-RXFP4 cells, 5 nM Eu-R3/I5, Table 3, read-out: Eu-R3/I5 pKi (converted)) of 155 nM and an EC50 ([3]; RXFP4, CHO-K1-RXFP4 cells, 1 μM forskolin, 6 hours, Table 3, read-out: cAMP pEC50 (converted)) of 55 nM. For the same compound, the half-life at 400 µg/mL [7] was roughly 300 min and the EC50 [8] was 2690 nM.

In the case of “R3(B1-22): R3(B1-22) RXFP3 antagonist, co-injected in pain model; possibly the same as H3B1-22R (RAAPYGVRLSGREFIRAVIFTSR)”, the “effect of co-injection on the antinociceptive effects of the agonists” value [9] is reported as “fully abolished”.
